{"source": "patent US20250019370A1", "about": "“L-LYSINE SALT OF 4-CHLORO-5-[4-(2,6-DICHLOROPHENYL)SULFONYLPIPERAZIN-1-YL]-1-BENZOFURAN-2-CARBOXYLIC ACID AND VARIOUS FORMS THEREOF” (ENYO PHARMA, priority 2023, published 2025)", "test": "Polymorph screening (solids analysed by XRPD)", "format": "physicochemical", "settings": "form I as starting material", "description": "A polymorph screening was performed on EYP001 L-lysine salt crystalline form I (form I as starting material unless otherwise specified).\nA number of unique materials with different patterns were produced, including crystalline forms I-IV and an amorphous material. All solids from the screening experiments were analysed by XRPD analysis and the resulting patterns compared to that of the reference. The observed solids and their ways of obtention are described in Table 16.", "key": {"[1]": {"settings": "Entry 39: acetone, slurry (60° C.)"}, "[2]": {"settings": "Entry 40: DMSO, slurry (60° C.)"}, "[3]": {"settings": "Entry 41: EtOAc, slurry (60° C.)"}, "[4]": {"settings": "Entry 43: water, slurry (60° C.)"}, "[5]": {"settings": "Entry 44: MeOH, slurry (60° C.)"}, "[6]": {"settings": "Entry 45: EtOH, slurry (60° C.)"}, "[7]": {"settings": "Entry 46: heptane, slurry (60° C.)"}, "[8]": {"settings": "Entry 47: EtOH /water (96:4% v/v), slurry (60° C.)"}, "[9]": {"settings": "Entry 49: acetone, vapour stress"}, "[10]": {"settings": "Entry 56: heptane, vapour stress"}, "[11]": {"settings": "Entry 58: THF/water (82:18% v/v), anti-solvent THF, vapour diffusion"}, "[12]": {"settings": "Entry 59: THF/water (82:18% v/v), anti-solvent IPA, vapour diffusion"}, "[13]": {"settings": "Entry 60: THF/water (82:18% v/v), anti-solvent EtOAc, vapour diffusion"}, "[14]": {"settings": "Entry 61: acetone/water (50:50% v/v), slow cool"}, "[15]": {"settings": "Entry 62: DMSO/water (80:20% v/v), slow cool"}, "[16]": {"settings": "Entry 64: IPA/water (80:20% v/v), slow cool"}, "[17]": {"settings": "Entry 65: MEOH/water (84:16% v/v), slow cool"}, "[18]": {"settings": "Entry 66: THF/water (82:18% v/v), slow cool"}, "[19]": {"settings": "Entry 67: THF/water (82:18% v/v), crash precipitation"}, "[20]": {"settings": "Entry 69: DMSO, anti-solvent EtOAc, crash precipitation"}, "[21]": {"settings": "Entry 70: THF/water (82:18% v/v), temperature cycle"}, "[22]": {"settings": "Entry 71: DMSO/water (80:20% v/v), temperature cycle"}, "[23]": {"settings": "Entry 72: MeOH/water (84:16% v/v), temperature cycle"}}}
{"smiles": "NCCCC[C@H](N)C(=O)O.O=C(O)c1cc2c(Cl)c(N3CCN(S(=O)(=O)c4c(Cl)cccc4Cl)CC3)ccc2o1", "note": "[EYP001 L-lysine salt Form I, L-lysine salt of 4-chloro-5-[4-(2,6-dichlorophenyl)sulfonylpiperazin-1-yl]-1-benzofuran-2-carboxylic acid]", "values": [{"measurement": "XRPD", "setting": "Entry 37: THF/water (82:18% v/v), slurry (5° C.)", "result": "Form I"}, {"measurement": "Results", "setting": "Entry 38: THF, slurry (60° C.)", "result": "solid"}, {"measurement": "XRPD", "setting": "Entry 38: THF, slurry (60° C.)", "result": "Form I"}, {"measurement": "Results", "setting": "[1]", "result": "solid"}, {"measurement": "XRPD", "setting": "[1]", "result": "Amorphous"}, {"measurement": "Results", "setting": "[2]", "result": "solid"}, {"measurement": "XRPD", "setting": "[2]", "result": "Form I"}, {"measurement": "Results", "setting": "[3]", "result": "solid"}, {"measurement": "XRPD", "setting": "[3]", "result": "Form I"}, {"measurement": "Results", "setting": "Entry 42: IPA, slurry (60° C.)", "result": "solid"}, {"measurement": "XRPD", "setting": "Entry 42: IPA, slurry (60° C.)", "result": "Form I"}, {"measurement": "Results", "setting": "[4]", "result": "solid"}, {"measurement": "XRPD", "setting": "[4]", "result": "Form III"}, {"measurement": "Results", "setting": "[5]", "result": "solid"}, {"measurement": "XRPD", "setting": "[5]", "result": "Form I"}, {"measurement": "Results", "setting": "[6]", "result": "solid"}, {"measurement": "XRPD", "setting": "[6]", "result": "Form I"}, {"measurement": "Results", "setting": "[7]", "result": "solid"}, {"measurement": "XRPD", "setting": "[7]", "result": "Amorphous"}, {"measurement": "Results", "setting": "[8]", "result": "solid"}, {"measurement": "XRPD", "setting": "[8]", "result": "Form I"}, {"measurement": "Results", "setting": "Entry 48: THF, vapour stress", "result": "solid"}, {"measurement": "XRPD", "setting": "Entry 48: THF, vapour stress", "result": "Amorphous"}, {"measurement": "Results", "setting": "[9]", "result": "solid"}, {"measurement": "XRPD", "setting": "[9]", "result": "Amorphous"}, {"measurement": "Results", "setting": "Entry 50: DMSO, vapour stress", "result": "solid"}, {"measurement": "XRPD", "setting": "Entry 50: DMSO, vapour stress", "result": "Amorphous"}, {"measurement": "Results", "setting": "Entry 51: EtOAc, vapour stress", "result": "solid"}, {"measurement": "XRPD", "setting": "Entry 51: EtOAc, vapour stress", "result": "Form I"}, {"measurement": "Results", "setting": "Entry 52: IPA, vapour stress", "result": "solid"}, {"measurement": "XRPD", "setting": "Entry 52: IPA, vapour stress", "result": "Form I"}, {"measurement": "Results", "setting": "Entry 53: water, vapour stress", "result": "solid"}, {"measurement": "XRPD", "setting": "Entry 53: water, vapour stress", "result": "Form I"}, {"measurement": "Results", "setting": "Entry 54: MeOH, vapour stress", "result": "solid"}, {"measurement": "XRPD", "setting": "Entry 54: MeOH, vapour stress", "result": "Form I"}, {"measurement": "Results", "setting": "Entry 55: EtOH, vapour stress", "result": "solid"}, {"measurement": "XRPD", "setting": "Entry 55: EtOH, vapour stress", "result": "Form I"}, {"measurement": "Results", "setting": "[10]", "result": "solid"}, {"measurement": "XRPD", "setting": "[10]", "result": "Amorphous"}, {"measurement": "Results", "setting": "Entry 57: THF/water (82:18% v/v), vapour stress", "result": "solution"}, {"measurement": "Results", "setting": "[11]", "result": "solid"}, {"measurement": "XRPD", "setting": "[11]", "result": "Form I"}, {"measurement": "Results", "setting": "[12]", "result": "solid"}, {"measurement": "XRPD", "setting": "[12]", "result": "Form I"}, {"measurement": "Results", "setting": "[13]", "result": "solid"}, {"measurement": "XRPD", "setting": "[13]", "result": "Form I"}, {"measurement": "Results", "setting": "[14]", "result": "solid"}, {"measurement": "XRPD", "setting": "[14]", "result": "Form I"}, {"measurement": "Results", "setting": "[15]", "result": "solid"}, {"measurement": "XRPD", "setting": "[15]", "result": "Form I"}, {"measurement": "Results", "setting": "Entry 63: water, slow cool", "result": "solid"}, {"measurement": "XRPD", "setting": "Entry 63: water, slow cool", "result": "Form III"}, {"measurement": "Results", "setting": "[16]", "result": "solid"}, {"measurement": "XRPD", "setting": "[16]", "result": "Form I"}, {"measurement": "Results", "setting": "[17]", "result": "solid"}, {"measurement": "XRPD", "setting": "[17]", "result": "Form I"}, {"measurement": "Results", "setting": "[18]", "result": "solid"}, {"measurement": "XRPD", "setting": "[18]", "result": "Form I"}, {"measurement": "Results", "setting": "[19]", "result": "solid"}, {"measurement": "XRPD", "setting": "[19]", "result": "Form I"}, {"measurement": "Results", "setting": "Entry 68: DMSO, anti-solvent THF, crash precipitation", "result": "no solid"}, {"measurement": "Results", "setting": "[20]", "result": "solid"}, {"measurement": "XRPD", "setting": "[20]", "result": "Amorphous"}, {"measurement": "Results", "setting": "[21]", "result": "solid"}, {"measurement": "XRPD", "setting": "[21]", "result": "Form I"}, {"measurement": "Results", "setting": "[22]", "result": "solid"}, {"measurement": "XRPD", "setting": "[22]", "result": "Form I"}, {"measurement": "Results", "setting": "[23]", "result": "solid"}, {"measurement": "XRPD", "setting": "[23]", "result": "Form I"}]}
